Data as given in ChEMBL document CHEMBL4811312, “SAR towards indoline and 3-azaindoline classes of IDO1 inhibitors” (Bioorg Med Chem Lett, 2021).

Experiments:
[1] = biological target: T1, Indoleamine 2,3-dioxygenase 1 (Homo sapiens, UniProt P14902); test: Inhibition of human IDO1 in human Hela cells; format: cell-based
Target sequence in this assay (P14902 whole entry): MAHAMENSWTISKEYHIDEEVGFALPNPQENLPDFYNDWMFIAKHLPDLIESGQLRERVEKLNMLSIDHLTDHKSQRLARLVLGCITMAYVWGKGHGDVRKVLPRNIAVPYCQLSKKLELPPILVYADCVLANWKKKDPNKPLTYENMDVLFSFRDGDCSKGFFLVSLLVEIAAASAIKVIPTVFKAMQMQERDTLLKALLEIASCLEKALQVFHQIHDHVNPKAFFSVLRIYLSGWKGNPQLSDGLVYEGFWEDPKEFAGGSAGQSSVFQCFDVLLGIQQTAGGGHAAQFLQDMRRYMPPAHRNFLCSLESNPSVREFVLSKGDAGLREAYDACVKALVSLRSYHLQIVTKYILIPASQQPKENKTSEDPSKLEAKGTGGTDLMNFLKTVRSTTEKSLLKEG

[2] = biological target: T1, Indoleamine 2,3-dioxygenase 1; test: Inhibition of human IDO1 in human Hela cells at 10 uM relative to control; format: cell-based
Target sequence in this assay (P14902 whole entry, looked up): as the sequence (P14902 whole entry) above

[3] = biological target: T1, Indoleamine 2,3-dioxygenase 1; test: Inhibition of human IDO1 assessed as unbound compound concentration by human whole blood assay; format: tissue-based
Target sequence in this assay (P14902 whole entry): as above

[4] = Unbound clearance in Wistar Han rats at 0.05 mg/kg, iv; format: ADME, organism-based; conditions: rat, in vivo
[5] = Clearance in Wistar Han rats at 0.05 mg/kg, iv; format: ADME, organism-based; conditions: rat, in vivo
[6] = Mean residence time in Wistar Han rat at 0.5 mg/kg, iv; format: ADME, organism-based; conditions: in vivo
[7] = biological target: T1, Indoleamine 2,3-dioxygenase 1; test: Inhibition of human IDO1 by human whole blood assay; format: tissue-based
Target sequence in this assay (P14902 whole entry): as above

[8] = biological target: T1, Indoleamine 2,3-dioxygenase 1; test: Inhibition of human IDO1 in HEK293 cells at 10 uM relative to control; format: cell-based
Target sequence in this assay (P14902 whole entry, looked up): as the sequence (P14902 whole entry) above

[9] = Unbound clearance in Beagle dog at 0.05 mg/kg, iv; format: ADME, organism-based, Canis lupus familiaris; conditions: in vivo
[10] = Clearance in Beagle dog at 0.05 mg/kg, iv; format: ADME, organism-based, Canis lupus familiaris; conditions: in vivo
[11] = Mean residence time in Beagle dog at 0.5 mg/kg, iv; format: ADME, organism-based, Canis lupus familiaris; conditions: in vivo

O=C(Nc1ccc(F)cc1)C1(c2ccc3c(c2)CCN3c2ccccn2)CCC1
IC50 [1]: 3.1 nM

O=C(NCc1ccc2c(c1)CCN2C(=O)c1cccc(Cl)c1)c1ccc(Cl)cc1
inhibition [2]: 90% | IC50 [1]: 90 nM

O=C(OC1CC1)N1CCc2cc(C3(C(=O)Nc4ccc(F)cc4)CCC3)ccc21
IC50 [1]: 1.4 nM | IC50 [3]: 0.45 nM | CL free [4]: 7720 mL/min/kg | clearance [5]: 87 mL/min/kg | MRT [6]: 1.8 h

O=C(c1cccc(Cl)c1)N1CCc2nc(C3(C(=O)Nc4ccc(F)cc4)CCC3)ccc21
IC50 [3]: 0.84 nM

Cc1nccc(N2c3ccc(C4(NC(=O)c5ccc(F)cc5)CC4)cc3[C@@H]3C[C@@H]32)n1
IC50 [1]: 8.2 nM

O=C(Nc1ccc(Cl)cc1)C1(c2ccc3c(c2)CCN3c2ccccn2)CCC1
IC50 [1]: 1.6 nM | IC50 [7]: 640 nM

COCCOC(=O)N1CCc2nc(C3(NC(=O)c4ccc(Cl)cc4)CCC3)ccc21
IC50 [1]: 6.9 nM

O=C(OC1CC1)N1CCc2nc(C3(C(=O)Nc4ccc(Cl)cc4)CCC3)ccc21
IC50 [1]: 2 nM | IC50 [7]: 90 nM

Cc1nccc(N2CCc3cc(C4(C(=O)Nc5ccc(F)cc5)CCC4)ccc32)n1
IC50 [1]: 5.2 nM | IC50 [7]: 430 nM

O=C(NC1(c2ccc3c(n2)CCN3C(=O)OC2CC2)CCC1)c1ccc(Cl)cc1
IC50 [1]: 4.5 nM | IC50 [7]: 63 nM | IC50 [3]: 0.63 nM | CL free [4]: 2049 mL/min/kg | clearance [5]: 20 mL/min/kg | MRT [6]: 3.2 h

CC(C)C(=O)N1CCc2cc(CNC(=O)c3ccc(Cl)cc3)ccc21
inhibition [8]: 92%

CCC(=O)N1CCc2cc(CNC(=O)c3cccc(F)c3)ccc21
inhibition [8]: 82%

O=C(NC1(c2ccc3c(n2)CCN3C(=O)OC2CC2)CC1)c1ccc(Cl)cc1
IC50 [1]: 4.1 nM | IC50 [7]: 390 nM | IC50 [3]: 11 nM | CL free [4]: 174 mL/min/kg | clearance [5]: 4.8 mL/min/kg | CL free [9]: 4800 mL/min/kg | clearance [10]: 14 mL/min/kg | MRT [6]: 2.9 h | MRT [11]: 4.9 h

Cc1nccc(N2CCc3nc(C4(C(=O)Nc5ccc(F)cc5)CCC4)ccc32)n1
IC50 [1]: 21 nM | IC50 [7]: 430 nM

CC(C)C(=O)N1CCc2cc(CNC(=O)c3cccs3)ccc21
inhibition [8]: 100%

COC(=O)N1c2ccc(C3(NC(=O)c4ccc(F)cc4)CC3)cc2[C@@H]2CC[C@@H]21
IC50 [1]: 5.6 nM | CL free [4]: 2899 mL/min/kg | clearance [5]: 29 mL/min/kg | MRT [6]: 0.8 h

Cc1nccc(N2CC3(CC3)c3nc(C4(NC(=O)c5ccc(F)cc5)CC4)ccc32)n1
IC50 [1]: 34 nM | CL free [4]: 1176 mL/min/kg | clearance [5]: 7.3 mL/min/kg | MRT [6]: 3.4 h

O=C(C1CC1)N1CCc2nc(C3(C(=O)Nc4ccc(F)cc4)CCC3)ccc21
IC50 [1]: 8 nM | IC50 [7]: 330 nM | IC50 [3]: 29 nM | CL free [4]: 668 mL/min/kg | clearance [5]: 60 mL/min/kg | MRT [6]: 1.2 h

CC(C)CC(=O)N1CCc2cc(CNC(=O)c3ccco3)ccc21
inhibition [8]: 100%

O=C(NC1(c2ccc3c(n2)CCN3c2ccnc(C(F)(F)F)n2)CCC1)c1ccc(Cl)cc1
IC50 [1]: 93 nM | IC50 [7]: 240 nM

Cc1nccc(N2CCc3nc(C4(C(=O)Nc5ccc(Cl)cc5)CCC4)ccc32)n1
IC50 [1]: 12.5 nM

CC(C)CC(=O)N1CCc2cc(CNC(=O)C3CC3)ccc21
inhibition [8]: 35%

Cc1nccc(N2c3ccc(C4(NC(=O)c5ccc(F)cc5)CC4)cc3[C@H]3CC[C@H]32)n1
IC50 [1]: 3.8 nM | IC50 [7]: 64 nM

Cc1nccc(N2c3ccc(C4(NC(=O)c5ccc(F)cc5)CC4)cc3[C@H]3C[C@H]32)n1
IC50 [1]: 2.9 nM | IC50 [7]: 180 nM | clearance [5]: 3.3 mL/min/kg | MRT [6]: 3.6 h

O=C(Nc1ccc(Cl)cc1)C1(c2ccc3c(n2)CCN3c2ccccn2)CCC1
IC50 [1]: 2.3 nM | IC50 [7]: 340 nM | IC50 [3]: 0.34 nM | CL free [4]: 35929 mL/min/kg | clearance [5]: 53 mL/min/kg | MRT [6]: 2.2 h

Cc1nccc(N2c3ccc(C4(NC(=O)c5ccc(F)cc5)CC4)cc3[C@@H]3CC[C@@H]32)n1
IC50 [1]: 5 nM | IC50 [7]: 66 nM

CC(C)CC(=O)N1CCc2cc(CNC(=O)c3cccnc3)ccc21
inhibition [8]: 86%

CCC(=O)N1CCc2cc(CNC(=O)c3cccc(Cl)c3)ccc21
inhibition [8]: 77%

CCC(=O)N1CCc2cc(CNC(=O)c3ccc(F)cc3)ccc21
inhibition [8]: 96%

CC(C)C(=O)N1CCc2cc(CNC(=O)c3ccc(F)cc3)ccc21
inhibition [8]: 88%

CC(C)C(=O)N1CCc2cc(CNC(=O)c3ccco3)ccc21
inhibition [2]: 92% | IC50 [1]: 92 nM

CCC(=O)NCc1ccc2c(c1)CCN2C(=O)c1ccccc1
inhibition [8]: 41%

O=C(Nc1ccc(F)cc1)C1(c2ccc3c(n2)CCN3c2ccnc(C(F)(F)F)n2)CCC1
IC50 [1]: 127 nM

COC(=O)N1c2ccc(C3(NC(=O)c4ccc(F)cc4)CC3)cc2[C@H]2CC[C@H]21
IC50 [1]: 2.8 nM | IC50 [7]: 300 nM | IC50 [3]: 4.1 nM | CL free [4]: 2318 mL/min/kg | clearance [5]: 32 mL/min/kg | MRT [6]: 1 h

CC(=O)N1CCc2cc(CNC(=O)c3cccs3)ccc21
inhibition [8]: 72%

CCC(=O)N1CCc2cc(CNC(=O)c3cccs3)ccc21
inhibition [8]: 89%

CC(C)CC(=O)N1CCc2cc(CNC(=O)c3cccs3)ccc21
inhibition [8]: 100%

CC(C)C(=O)N1CCc2cc(CNC(=O)c3ccccc3)ccc21
inhibition [8]: 100%

O=C(NC1(c2ccc3c(n2)C2(CC2)CN3C(=O)OC2CC2)CC1)c1ccc(F)cc1
IC50 [1]: 12 nM

Cc1nccc(N2CCc3nc(C4(NC(=O)c5ccc(Cl)cc5)CCC4)ccc32)n1
IC50 [1]: 46 nM

O=C(OC1CC1)N1CCc2nc(C3(C(=O)Nc4ccc(F)cc4)CCC3)ccc21
IC50 [1]: 2.7 nM | CL free [4]: 1691 mL/min/kg | clearance [5]: 61 mL/min/kg | MRT [6]: 2.7 h

CCC(=O)N1CCc2cc(CNC(=O)c3ccccc3)ccc21
inhibition [8]: 87%

CCC(=O)N1CCc2cc(CNC(=O)c3ccnn3C)ccc21
inhibition [8]: 14%

CCCC(=O)NCc1ccc2c(c1)CCN2C(=O)CC(C)C
inhibition [8]: 64%

COCC(=O)NCc1ccc2c(c1)CCN2C(=O)CC(C)C
inhibition [8]: 20%

CC(C)NC(=O)NCc1ccc2c(c1)CCN2C(=O)c1ccccc1
inhibition [8]: 45%
